According to patent US20200338125A1, “METHOD FOR EXPANSION OF LYMPHOCYTES” (LUDWIG INSTITUTE FOR CANCER RESEARCH LTD, priority 2017, published 2020):

System: TILs of patient CTE-0009
Test: IFNγ-ELISPOT of TILs from draining lymph nodes, patient CTE-0009
Assay type: cell-based, human
Details: FIG. 5; day 14; conventional and primed cultures from draining lymph nodes
Protocol: Both “conventional” and “primed” TILs of patient CTE-0009 were generated from a single cell suspension of draining lymph nodes, following the methods described herein. Each culture was interrogated at day 14 by IFNγ-ELISPOT for the presence of neo-antigen T cell reactivities directed against one of the 4 predicted peptides and against the corresponding wild-type (wt) peptides. […] PHA was used at 1 μg/ml.
T cell reactivity against predicted neo-antigens was tested by IFNγ ELISpot on pre-REP TILs. Positivity was confirmed in ≥2 independent experiments.

TPINPRRCL [wt] was tested, and the “neo-antigen T cell reactivities directed against the peptide” value was “not”.
